Measured values taken from patent US10849866B2, “Methods for inhibiting conversion of choline to trimethylamine (TMA)” (The Procter & Gamble Company, priority 2017, dated 2020).

Key:
[1] = test system: whole cell wild-type P. mirabilis; assay: Inhibition of conversion of choline to TMA by whole cell wild-type P. mirabilis (Example 5); assay type: cell-based; settings: Proteus mirabilis
Method: (§1) Briefly, efficacy was measured as IC50 (nM) by inhibition of conversion of choline to TMA metabolized by recombinant P. mirabilis Cut C/D lysate; recombinant D. alaskensis Cut C/D lysate, or whole cell wild-type P. mirabilis.

[2] = target: T1, recombinant D. alaskensis Cut C/D lysate (Oleidesulfovibrio alaskensis, UniProt Q30W70); assay: Inhibition of conversion of choline to TMA by recombinant D. alaskensis Cut C/D lysate (Example 5); assay type: biochemical
T1 construct: made in house
T1 sequence (Q30W70 1-846): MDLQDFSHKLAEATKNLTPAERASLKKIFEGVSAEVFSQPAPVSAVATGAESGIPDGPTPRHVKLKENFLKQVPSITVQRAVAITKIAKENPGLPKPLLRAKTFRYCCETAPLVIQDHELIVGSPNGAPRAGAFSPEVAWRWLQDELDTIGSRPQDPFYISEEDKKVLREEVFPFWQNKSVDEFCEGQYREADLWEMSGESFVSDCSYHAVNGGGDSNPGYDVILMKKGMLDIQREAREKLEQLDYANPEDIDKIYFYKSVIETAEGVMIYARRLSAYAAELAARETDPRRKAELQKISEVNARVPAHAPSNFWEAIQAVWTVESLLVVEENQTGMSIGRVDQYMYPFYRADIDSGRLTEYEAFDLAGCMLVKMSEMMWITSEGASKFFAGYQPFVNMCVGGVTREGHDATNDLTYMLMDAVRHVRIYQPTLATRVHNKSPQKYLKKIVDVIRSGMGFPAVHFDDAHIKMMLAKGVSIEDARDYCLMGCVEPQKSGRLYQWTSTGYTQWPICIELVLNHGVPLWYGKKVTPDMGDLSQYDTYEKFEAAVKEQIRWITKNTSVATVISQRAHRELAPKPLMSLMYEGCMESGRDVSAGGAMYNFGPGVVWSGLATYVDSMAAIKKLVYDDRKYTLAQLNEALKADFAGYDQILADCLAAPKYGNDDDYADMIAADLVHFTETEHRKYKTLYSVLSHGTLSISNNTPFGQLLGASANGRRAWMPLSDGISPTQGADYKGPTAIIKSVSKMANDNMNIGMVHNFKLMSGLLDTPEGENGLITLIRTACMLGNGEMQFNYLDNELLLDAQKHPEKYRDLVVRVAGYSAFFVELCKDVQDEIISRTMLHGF
Method: as §1

[3] = test system: Proteus mirabilis 29906 (Pm) lysate; assay: Inhibition of formation of TMA from choline in Proteus mirabilis lysate (Example 2); assay type: biochemical; settings: Pm lysate 1.5 mg/mL protein, 50 μM d9-choline chloride, 37° C., two hours; read-out: TMA Inhibition (IC50, mol/L)
Method: Choline chloride (CC) (1M stock) was added to reach a final concentration of 2.5 mM choline chloride. The mixture was mixed using a vortex mixer for approximately 15 seconds and incubated at 37° C. for 22 hours. After incubation, 150 μL of CC-treated Pm lysate was dispensed into a deep-well plate (polypropylene, 2 mL volume, Corning Axygen catalogue # P-DW-20-C). […] The plates were agitated on a plate shaker for 1 minute. d9-choline chloride (1.5 μL of 5 mM) was added to all wells to reach a final d9-choline chloride concentration of 50 μM.
The plates were again agitated on a plate shaker for 1 minute and incubated at 37° C. for two hours. After incubation, 1.5 μL of formic acid was added to each well (final concentration=1% formic acid). The plates were agitated on a plate shaker for 1 minute and placed on ice. Cell lysate samples were spiked with stable isotope labeled internal standard (22.5 μL of 6 μg/mL of 13C3-trimethylamine (13C3-TMA) was added to each sample), then d9-trimethylamine (d9-TMA), trimethylamine (TMA) and 13C3-TMA were isolated from the lysate after protein precipitation as described below. […] The supernatant was removed and analyzed as described below. […] The concentrations of TMA and d9-TMA in the cell lysate were determined by interpolation from the quadratic (1/×2) regression curve.

[4] = test system: conversion of choline to TMA; assay: Rapid preclinical method: d9-choline challenge in mice (Example 6); assay type: in vivo, C57bl/6 female mice; settings: oral gavage with 2 mg d9-Choline, plasma, Time 3 hr
Method: Challenge: C57bl/6 female mice (8 wk of age ˜20 g BW) were maintained in accordance with the NIH guidelines in a 12:12 hr light:dark cycle on normal chow diet were placed in a clean cage without food ˜1 hr prior to gavage. […] Food was returned after a 2 hr fast (1 hr after gavage administration). Blood (30 μL) was collected into a heparinized capillary tube at 2, 3 and 4 hours after gavage. Blood was kept at 4° C., then spun using a centrifuge (5 min in centrifuge designed to capillary tubes) to separate plasma and hematocrit within 4 hours after collection. Plasma samples were stored at −80° C. Concentration of d9 Choline, d9TMA and d9TMAO was measured by LC-MS/MS.
Flora Normalization: Twenty four hours post-gavage mice were placed in a clean cage and fecal material from conventional mice was spread in all the cages.

[5] = target: T2, recombinant P. mirabilis Cut C/D lysate (Proteus mirabilis, UniProt B4EYG1); assay: Inhibition of conversion of choline to TMA by recombinant P. mirabilis Cut C/D lysate (Example 5); assay type: biochemical
T2 sequence (B4EYG1 1-1142): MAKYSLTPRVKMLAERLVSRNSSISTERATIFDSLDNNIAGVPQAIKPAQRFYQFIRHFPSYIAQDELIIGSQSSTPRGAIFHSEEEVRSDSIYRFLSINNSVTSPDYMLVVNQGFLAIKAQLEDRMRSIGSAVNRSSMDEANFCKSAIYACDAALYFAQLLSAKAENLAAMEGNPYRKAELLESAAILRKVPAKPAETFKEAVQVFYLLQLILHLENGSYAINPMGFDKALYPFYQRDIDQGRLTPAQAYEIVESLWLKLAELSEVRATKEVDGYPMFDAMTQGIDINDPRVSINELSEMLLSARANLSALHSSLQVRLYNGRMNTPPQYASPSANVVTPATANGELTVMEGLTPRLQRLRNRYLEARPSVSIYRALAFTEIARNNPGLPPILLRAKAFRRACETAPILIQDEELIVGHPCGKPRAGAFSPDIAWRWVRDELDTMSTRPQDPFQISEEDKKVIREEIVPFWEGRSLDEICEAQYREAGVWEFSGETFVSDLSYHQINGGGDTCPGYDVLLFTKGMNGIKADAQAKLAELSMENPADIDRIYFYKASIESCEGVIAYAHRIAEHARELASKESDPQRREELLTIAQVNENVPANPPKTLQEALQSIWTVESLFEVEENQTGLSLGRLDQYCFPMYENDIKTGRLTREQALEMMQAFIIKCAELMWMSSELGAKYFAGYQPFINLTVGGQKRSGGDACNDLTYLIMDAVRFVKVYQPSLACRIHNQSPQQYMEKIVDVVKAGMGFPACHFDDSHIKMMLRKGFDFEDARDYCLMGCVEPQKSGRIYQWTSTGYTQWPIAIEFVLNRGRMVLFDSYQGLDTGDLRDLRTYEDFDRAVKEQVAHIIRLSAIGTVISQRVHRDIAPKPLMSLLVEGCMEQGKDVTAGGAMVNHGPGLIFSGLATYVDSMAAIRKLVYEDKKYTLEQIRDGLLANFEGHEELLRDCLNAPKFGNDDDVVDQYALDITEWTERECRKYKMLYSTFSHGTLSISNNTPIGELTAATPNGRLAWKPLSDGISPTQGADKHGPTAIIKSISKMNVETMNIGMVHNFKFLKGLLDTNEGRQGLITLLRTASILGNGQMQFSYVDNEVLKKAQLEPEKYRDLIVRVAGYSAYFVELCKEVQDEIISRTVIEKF
T2 sequence (B4EYG0 1-316 partner): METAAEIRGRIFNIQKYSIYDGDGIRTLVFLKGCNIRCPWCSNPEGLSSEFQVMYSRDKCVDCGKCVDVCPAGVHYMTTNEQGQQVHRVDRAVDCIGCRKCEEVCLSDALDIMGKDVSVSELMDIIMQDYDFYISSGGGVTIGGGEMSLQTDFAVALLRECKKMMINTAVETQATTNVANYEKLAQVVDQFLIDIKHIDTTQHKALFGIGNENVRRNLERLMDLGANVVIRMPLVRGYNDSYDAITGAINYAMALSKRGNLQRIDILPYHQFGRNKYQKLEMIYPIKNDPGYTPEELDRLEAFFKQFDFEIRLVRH
Method: as §1

Row | SMILES | EC50 [1] [nM] | IC50 [2] [nM] | IC50 [3] [nM] | Calculated EC50 (mg/kg) compared to Vehicle Control [4] [mg/kg] | IC50 [5] [nM]
1 | C[N+](C)(CCl)CCF [ID 1, N-(chloromethyl)-2-fluoro-N,N-dimethylethan-1-aminium chloride] | 8700 | 760 | 270 | 3.10 | 690
2 | C[N+](C)(CI)CCF [ID 2, 2-fluoro-N-(iodomethyl)-N,N-dimethylethan-1-aminium chloride] | 67000 | 150 | 179 | 15.40 | 240
